The record followed here is PMC5623949, “Exploiting the 2-Amino-1,3,4-thiadiazole Scaffold To Inhibit Trypanosoma brucei Pteridine Reductase in Support of Early-Stage Drug Discovery” (ACS Omega, 2017).

Chain of CYP2D6 (P10635 whole entry): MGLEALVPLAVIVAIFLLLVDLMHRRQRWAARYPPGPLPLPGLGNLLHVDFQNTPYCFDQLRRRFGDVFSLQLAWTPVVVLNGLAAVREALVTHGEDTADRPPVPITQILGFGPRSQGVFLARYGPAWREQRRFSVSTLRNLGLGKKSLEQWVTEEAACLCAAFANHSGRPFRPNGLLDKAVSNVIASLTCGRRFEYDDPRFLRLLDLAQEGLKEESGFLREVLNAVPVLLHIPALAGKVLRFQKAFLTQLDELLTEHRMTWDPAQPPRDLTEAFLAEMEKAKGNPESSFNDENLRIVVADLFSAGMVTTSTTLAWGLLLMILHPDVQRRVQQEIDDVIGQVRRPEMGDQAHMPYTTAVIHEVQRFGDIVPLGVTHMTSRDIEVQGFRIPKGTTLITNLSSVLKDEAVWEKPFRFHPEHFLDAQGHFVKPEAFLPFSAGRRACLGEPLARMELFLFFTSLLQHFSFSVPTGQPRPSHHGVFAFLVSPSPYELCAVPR
Chain of CYP3A4 (P08684 whole entry, canonical isoform): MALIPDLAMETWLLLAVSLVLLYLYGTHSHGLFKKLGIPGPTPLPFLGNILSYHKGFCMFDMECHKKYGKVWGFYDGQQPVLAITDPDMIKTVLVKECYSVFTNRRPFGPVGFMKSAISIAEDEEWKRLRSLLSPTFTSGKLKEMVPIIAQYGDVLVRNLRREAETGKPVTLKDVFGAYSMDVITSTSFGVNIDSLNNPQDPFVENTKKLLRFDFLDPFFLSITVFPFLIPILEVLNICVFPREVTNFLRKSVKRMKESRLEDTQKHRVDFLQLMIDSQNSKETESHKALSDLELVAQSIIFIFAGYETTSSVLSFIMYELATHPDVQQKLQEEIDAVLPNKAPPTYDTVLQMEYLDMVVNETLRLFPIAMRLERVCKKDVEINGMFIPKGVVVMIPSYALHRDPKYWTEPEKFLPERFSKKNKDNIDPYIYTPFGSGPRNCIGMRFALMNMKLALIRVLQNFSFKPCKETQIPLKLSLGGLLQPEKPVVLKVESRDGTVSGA
Chain of CYP2C19 (P33261 whole entry, canonical isoform): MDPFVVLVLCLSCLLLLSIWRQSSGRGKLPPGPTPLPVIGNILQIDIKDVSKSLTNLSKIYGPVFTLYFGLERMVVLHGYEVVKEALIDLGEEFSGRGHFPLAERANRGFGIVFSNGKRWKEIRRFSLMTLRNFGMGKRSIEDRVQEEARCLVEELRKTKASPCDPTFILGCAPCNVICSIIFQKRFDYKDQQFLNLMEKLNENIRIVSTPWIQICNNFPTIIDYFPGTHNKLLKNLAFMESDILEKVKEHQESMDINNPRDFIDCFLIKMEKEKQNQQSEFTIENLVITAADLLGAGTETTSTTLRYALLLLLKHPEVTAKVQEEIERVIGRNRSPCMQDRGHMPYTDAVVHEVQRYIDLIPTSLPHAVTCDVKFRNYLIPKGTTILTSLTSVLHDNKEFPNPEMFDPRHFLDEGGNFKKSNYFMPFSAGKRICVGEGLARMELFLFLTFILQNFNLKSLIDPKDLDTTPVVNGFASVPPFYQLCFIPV
Chain of CYP2C9 (P11712 whole entry, canonical isoform): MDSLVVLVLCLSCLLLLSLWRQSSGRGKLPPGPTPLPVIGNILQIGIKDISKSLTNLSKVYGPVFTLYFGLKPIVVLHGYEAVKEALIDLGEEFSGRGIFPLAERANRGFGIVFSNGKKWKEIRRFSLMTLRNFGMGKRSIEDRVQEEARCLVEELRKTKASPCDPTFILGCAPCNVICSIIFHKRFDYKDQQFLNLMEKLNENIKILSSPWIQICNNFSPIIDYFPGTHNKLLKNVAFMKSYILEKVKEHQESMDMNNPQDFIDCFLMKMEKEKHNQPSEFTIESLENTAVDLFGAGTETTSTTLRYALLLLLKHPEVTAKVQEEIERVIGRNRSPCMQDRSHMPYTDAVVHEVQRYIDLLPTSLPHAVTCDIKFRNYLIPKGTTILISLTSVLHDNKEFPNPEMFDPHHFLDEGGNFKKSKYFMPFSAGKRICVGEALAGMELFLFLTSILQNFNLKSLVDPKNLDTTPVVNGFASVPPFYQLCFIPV

The target of the first data set is T1, hDHFR (Homo sapiens, UniProt P00374).
T1 construct: gene DHFR
T1 sequence (P00374 1-187): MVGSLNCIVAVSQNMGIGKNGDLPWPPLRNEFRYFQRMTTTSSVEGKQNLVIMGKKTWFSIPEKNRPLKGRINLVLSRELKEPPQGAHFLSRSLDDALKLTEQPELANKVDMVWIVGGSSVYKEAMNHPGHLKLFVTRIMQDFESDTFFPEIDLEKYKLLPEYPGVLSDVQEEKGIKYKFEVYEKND
As to the kind of experiment: biochemical. The arrangement: human DHFR enzyme inhibition. Particulars: 10 uM. The procedure:
Figure 10 Summary heat map of the in vitro assays to determine possible liability issues for all synthesized compounds. Assays were performed to assess inhibition of hERG and five CYP isoforms (1A2, 2C9, 2C19, 2D6, and 3A4), growth inhibition of A549 and W1-38 cell lines, and mitochondrial toxicity at 10 μM. The hDHFR inhibition was determined at 100 μM. The data, expressed as percentage values, were organized by adopting a color code for rapid and intuitive visualization. The ideal compound should have all tiles blue, indicating a safe toxicological profile for progressing into the development pipeline. The cells are colored from blue (100% of cell growth at the tested concentration) to red (0% of cell growth at the tested concentration) for A549 and W1-38 and from blue (0% of inhibitory activity at the tested concentration) to red (100% of inhibitory activity at the tested concentration) for CYP isoforms, hERG, hDHFR, and mitochondrial toxicity.
Usually inhibition stands for the change of the read-out against control, counted positive when it falls. As to `Nc1nnc(-c2cccc(-c3ccc4c(c3)OCO4)c2)s1` [2g], the inhibition at 10 µM was 12%.

Regarding `Nc1nnc(-c2cccc(-c3ccc(C(F)(F)F)cc3)c2)s1` [2e], the inhibition at 10 µM was 25%.

With `Nc1nnc(-c2ccccc2Cc2ccccc2)s1` [1m, 5-(2-benzylphenyl)-1,3,4-thiadiazol-2-amine], the inhibition at 10 µM turned out to be 20%.

In the case of `Nc1nnc(-c2cccc(-c3cccc(C(F)(F)F)c3)c2)s1` [2d], the inhibition at 10 µM came to 34%.

Still in this data set, the particulars now being: 25 uM.
For the compound `N#Cc1ccc(Cc2ccccc2-c2nnc(N)s2)cc1` [1n, 4-(2-(5-amino-1,3,4-thiadiazol-2-yl)benzyl)benzonitrile], the inhibition at 25 µM was found to be 37%.

The next data set deals with T2, hERG (Homo sapiens, UniProt Q12809).
T2 construct: gene KCNH2
T2 sequence (Q12809 whole entry): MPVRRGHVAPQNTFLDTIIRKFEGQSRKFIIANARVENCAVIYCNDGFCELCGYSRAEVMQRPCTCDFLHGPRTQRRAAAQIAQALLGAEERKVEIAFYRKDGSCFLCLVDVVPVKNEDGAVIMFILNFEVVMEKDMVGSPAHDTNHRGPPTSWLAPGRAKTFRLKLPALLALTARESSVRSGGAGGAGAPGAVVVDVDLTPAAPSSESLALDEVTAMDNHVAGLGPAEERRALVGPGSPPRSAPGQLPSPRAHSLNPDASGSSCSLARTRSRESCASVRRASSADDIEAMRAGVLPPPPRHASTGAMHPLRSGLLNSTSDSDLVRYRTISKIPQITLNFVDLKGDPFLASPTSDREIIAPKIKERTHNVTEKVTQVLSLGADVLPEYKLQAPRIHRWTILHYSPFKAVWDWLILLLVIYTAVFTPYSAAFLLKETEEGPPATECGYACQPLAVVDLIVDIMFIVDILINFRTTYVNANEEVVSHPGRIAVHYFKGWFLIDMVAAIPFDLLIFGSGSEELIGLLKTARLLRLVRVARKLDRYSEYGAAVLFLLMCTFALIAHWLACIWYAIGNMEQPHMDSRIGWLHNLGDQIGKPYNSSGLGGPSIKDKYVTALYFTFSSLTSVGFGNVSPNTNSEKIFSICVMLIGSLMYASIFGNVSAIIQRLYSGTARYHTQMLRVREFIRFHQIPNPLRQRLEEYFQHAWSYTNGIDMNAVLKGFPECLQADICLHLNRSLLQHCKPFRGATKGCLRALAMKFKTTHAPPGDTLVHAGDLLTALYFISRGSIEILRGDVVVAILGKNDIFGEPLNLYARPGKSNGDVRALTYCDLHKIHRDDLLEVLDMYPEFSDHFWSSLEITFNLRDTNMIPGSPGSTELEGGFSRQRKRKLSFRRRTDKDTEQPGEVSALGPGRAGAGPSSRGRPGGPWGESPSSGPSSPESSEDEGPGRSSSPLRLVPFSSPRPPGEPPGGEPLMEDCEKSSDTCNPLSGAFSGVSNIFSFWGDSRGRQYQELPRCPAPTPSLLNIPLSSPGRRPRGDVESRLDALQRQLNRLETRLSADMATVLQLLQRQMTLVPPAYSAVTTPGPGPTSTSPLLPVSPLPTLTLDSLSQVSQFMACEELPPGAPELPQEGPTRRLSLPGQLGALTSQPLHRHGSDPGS
Assay: not given
The arrangement: hERG inhibition liability assay.
Conditions: not given
The procedure: (§1) Independent of the effect of any antiparasitic potential of compounds, they were evaluated using a panel of early-toxicity assays comprising cytotoxicity (A549, human lung adenocarcinoma epithelial cell line and WI-38, human lung fibroblasts), mitochondrial toxicity (786-O, human renal carcinoma cell line), hERG inhibition,[31] cytochrome P450 inhibition (CYP1A2, CYP2C9, CYP2C19, CYP2D6, and CYP3A4),[31] and Aurora B kinase inhibition. […] For the two compounds active against TbPTR1 (4m and 4o), IC50 against hERG, cytochrome P450, and mitochondrial toxicity were determined (reported in Supporting Information). We observed that the dose of compounds 4m, 4o, 4c, and 3k was 4 μM in the potentiation assays. […] In the case of hERG, CYP2D6, CYP2A9, CYP2C19, and mitochondrial toxicity, there is a selectivity index of around 3–4 fold, thus showing an acceptable profile.  Figure 10 Summary heat map of the in vitro assays to determine possible liability issues for all synthesized compounds. Assays were performed to assess inhibition of hERG and five CYP isoforms (1A2, 2C9, 2C19, 2D6, and 3A4), growth inhibition of A549 and W1-38 cell lines, and mitochondrial toxicity at 10 μM. The hDHFR inhibition was determined at 100 μM. The data, expressed as percentage values, were organized by adopting a color code for rapid and intuitive visualization. The ideal compound should have all tiles blue, indicating a safe toxicological profile for progressing into the development pipeline. The cells are colored from blue (100% of cell growth at the tested concentration) to red (0% of cell growth at the tested concentration) for A549 and W1-38 and from blue (0% of inhibitory activity at the tested concentration) to red (100% of inhibitory activity at the tested concentration) for CYP isoforms, hERG, hDHFR, and mitochondrial toxicity.
Consider `Nc1nnc(-c2cccc(-c3ccc4c(c3)OCO4)c2)s1` [2g], for which the inhibition at 10 µM is 27.9 ± 5.2%.

Tested on in a further data set: not listed separately
As to the kind of experiment: in vitro. Also on record: cytotoxicity, per cent cell growth of WI-38 fibroblasts. Particulars: human, wi-38 cells; read-out: % cell growth W1-38 at 10uM. The procedure:
as §1
Regarding `Nc1nnc(-c2cccc(-c3ccc4c(c3)OCO4)c2)s1` [2g], the viability at 10 µM was determined as 130 ± 14.1%.

Tested on in a further data set: not listed separately
In words: in vitro. The arrangement: cytotoxicity, per cent cell growth of A549 cells. As to conditions: human, a549 cells; read-out: % cell growth A549 at 10uM. As for the experimental part:
as §1
Consider `Nc1nnc(-c2cccc(-c3ccc4c(c3)OCO4)c2)s1` [2g], for which the viability at 10 µM worked out at 116 ± 8.3%.

Another data set concerns the target T3, TbPTR1 (Trypanosoma brucei brucei, UniProt O76290).
T3 construct: made in house
T3 sequence (O76290 1-268): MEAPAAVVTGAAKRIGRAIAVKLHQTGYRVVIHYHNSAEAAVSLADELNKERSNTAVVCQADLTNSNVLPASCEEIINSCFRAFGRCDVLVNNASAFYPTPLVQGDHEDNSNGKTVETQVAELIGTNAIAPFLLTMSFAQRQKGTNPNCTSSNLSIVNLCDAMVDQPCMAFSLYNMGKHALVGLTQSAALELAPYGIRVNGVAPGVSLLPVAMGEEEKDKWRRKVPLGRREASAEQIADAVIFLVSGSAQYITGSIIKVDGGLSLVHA
In words: biochemical. As to conditions: 50 μM compound; read-out: % Inhibition TbPTR1 at 50 μM.
Turning to `Nc1nnc(-c2cccc(-c3ccc4c(c3)OCO4)c2)s1` [2g], the inhibition at 50 µM was 4 ± 0.4%.

In the case of `Nc1nnc(-c2cccc(-c3ccc(C(F)(F)F)cc3)c2)s1` [2e], the inhibition at 50 µM was determined as 6.6 ± 0.6%.

As to `Nc1nnc(-c2cccc(-c3cccc(C(F)(F)F)c3)c2)s1` [2d], the inhibition at 50 µM worked out at 4.6 ± 1%.

For another data set, the system named is 786-O. In words: cells. Also on record: mitochondrial toxicity in 786-O renal carcinoma cells. Particulars: Homo sapiens, 786-0; mitochondrial toxicity. The procedure: as §1
For the compound `Nc1nnc(-c2cccc(-c3ccc4c(c3)OCO4)c2)s1` [2g], the inhibition at 10 µM was -2.6 ± 13.7%.

A further data set concerns the target CYP2C19 (Homo sapiens, UniProt P33261). As to the kind of experiment: in vitro. The arrangement: cytochrome P450 isoform inhibition liability assay.
Conditions: not given
The procedure: as §1
As for `Nc1nnc(-c2cccc(-c3ccc4c(c3)OCO4)c2)s1` [2g], the inhibition at 10 µM came to 34.3 ± 3.7%.

For `Nc1nnc(-c2cccc(-c3ccc(C(F)(F)F)cc3)c2)s1` [2e], the inhibition at 10 µM stood at 12.3 ± 5.4%.

Consider `N#Cc1ccc(Cc2ccccc2-c2nnc(N)s2)cc1` [1n, 4-(2-(5-amino-1,3,4-thiadiazol-2-yl)benzyl)benzonitrile], for which the inhibition at 10 µM is 104 ± 2%.

As for `Nc1nnc(-c2ccccc2Cc2ccccc2)s1` [1m, 5-(2-benzylphenyl)-1,3,4-thiadiazol-2-amine], the inhibition at 10 µM came to 90.5 ± 0.6%.

As to `Nc1nnc(-c2cccc(-c3cccc(C(F)(F)F)c3)c2)s1` [2d], the inhibition at 10 µM stood at 43.6 ± 2.1%.

A further data set addresses CYP3A4 (Homo sapiens, UniProt P08684). As to the kind of experiment: in vitro. Also on record: cytochrome P450 isoform inhibition liability assay.
Conditions: not given
The procedure: as §1
With `Nc1nnc(-c2cccc(-c3ccc4c(c3)OCO4)c2)s1` [2g], the inhibition at 10 µM was found to be 28.2 ± 5%.

In the case of `Nc1nnc(-c2cccc(-c3ccc(C(F)(F)F)cc3)c2)s1` [2e], the inhibition at 10 µM is 17.9 ± 5.3%.

Regarding `N#Cc1ccc(Cc2ccccc2-c2nnc(N)s2)cc1` [1n, 4-(2-(5-amino-1,3,4-thiadiazol-2-yl)benzyl)benzonitrile], the inhibition at 10 µM was found to be 69.6 ± 3.25%.

On to `Nc1nnc(-c2ccccc2Cc2ccccc2)s1` [1m, 5-(2-benzylphenyl)-1,3,4-thiadiazol-2-amine], for which the inhibition at 10 µM worked out at 47.5 ± 4.8%.

For the compound `Nc1nnc(-c2cccc(-c3cccc(C(F)(F)F)c3)c2)s1` [2d], the inhibition at 10 µM worked out at 33.9 ± 3.8%.

A further data set concerns the target CYP2D6 (Homo sapiens, UniProt P10635). As to the kind of experiment: in vitro.
Conditions: not given
Also on record: cytochrome P450 isoform inhibition liability assay. The procedure: as §1
Take `Nc1nnc(-c2cccc(-c3ccc4c(c3)OCO4)c2)s1` [2g]: the inhibition at 10 µM is 27 ± 2.36%.

Regarding `Nc1nnc(-c2cccc(-c3ccc(C(F)(F)F)cc3)c2)s1` [2e], the inhibition at 10 µM is 20 ± 5.8%.

For the compound `N#Cc1ccc(Cc2ccccc2-c2nnc(N)s2)cc1` [1n, 4-(2-(5-amino-1,3,4-thiadiazol-2-yl)benzyl)benzonitrile], the inhibition at 10 µM came to 75.4 ± 5.2%.

Take `Nc1nnc(-c2ccccc2Cc2ccccc2)s1` [1m, 5-(2-benzylphenyl)-1,3,4-thiadiazol-2-amine]: the inhibition at 10 µM came out at 69.2 ± 4.5%.

`Nc1nnc(-c2cccc(-c3cccc(C(F)(F)F)c3)c2)s1` [2d]: the inhibition at 10 µM stood at 31.1 ± 4.3%.

Another data set has as its target T4, CYP1A2 (Homo sapiens, UniProt P05177).
T4 sequence (P05177 1-516): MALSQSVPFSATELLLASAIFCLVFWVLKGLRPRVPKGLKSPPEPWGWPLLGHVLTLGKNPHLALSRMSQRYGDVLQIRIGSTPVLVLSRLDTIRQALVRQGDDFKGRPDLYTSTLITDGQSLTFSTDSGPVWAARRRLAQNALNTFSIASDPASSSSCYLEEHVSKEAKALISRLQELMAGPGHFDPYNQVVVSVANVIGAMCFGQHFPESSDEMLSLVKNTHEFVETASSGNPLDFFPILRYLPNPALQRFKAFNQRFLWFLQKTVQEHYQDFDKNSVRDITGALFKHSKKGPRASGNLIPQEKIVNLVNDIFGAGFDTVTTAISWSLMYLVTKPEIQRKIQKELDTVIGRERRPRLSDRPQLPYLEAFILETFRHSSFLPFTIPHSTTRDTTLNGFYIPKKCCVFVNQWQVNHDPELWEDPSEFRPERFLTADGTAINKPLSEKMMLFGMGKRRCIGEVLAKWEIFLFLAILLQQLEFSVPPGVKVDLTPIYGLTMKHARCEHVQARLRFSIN
As to the kind of experiment: in vitro.
Conditions: not given
Also on record: cytochrome P450 isoform inhibition liability assay. As for the experimental part:
as §1
Take `Nc1nnc(-c2cccc(-c3ccc4c(c3)OCO4)c2)s1` [2g]: the inhibition at 10 µM turned out to be 97.8 ± 1%.

In the case of `Nc1nnc(-c2cccc(-c3ccc(C(F)(F)F)cc3)c2)s1` [2e], the inhibition at 10 µM is 92.6 ± 1.1%.

As to `N#Cc1ccc(Cc2ccccc2-c2nnc(N)s2)cc1` [1n, 4-(2-(5-amino-1,3,4-thiadiazol-2-yl)benzyl)benzonitrile], the inhibition at 10 µM was 56.2 ± 0.5%.

`Nc1nnc(-c2ccccc2Cc2ccccc2)s1` [1m, 5-(2-benzylphenyl)-1,3,4-thiadiazol-2-amine]: the inhibition at 10 µM was found to be 68.1 ± 1%.

In the case of `Nc1nnc(-c2cccc(-c3cccc(C(F)(F)F)c3)c2)s1` [2d], the inhibition at 10 µM stood at 100 ± 2.1%.

A further data set has as its target CYP2C9 (Homo sapiens, UniProt P11712). In words: in vitro. The arrangement: cytochrome P450 isoform inhibition liability assay.
Conditions: not given
The procedure: as §1
On to `Nc1nnc(-c2cccc(-c3ccc4c(c3)OCO4)c2)s1` [2g], for which the inhibition at 10 µM is 28.7 ± 2.2%.

`Nc1nnc(-c2cccc(-c3ccc(C(F)(F)F)cc3)c2)s1` [2e]: the inhibition at 10 µM stood at 25.6 ± 4%.

`N#Cc1ccc(Cc2ccccc2-c2nnc(N)s2)cc1` [1n, 4-(2-(5-amino-1,3,4-thiadiazol-2-yl)benzyl)benzonitrile]: the inhibition at 10 µM turned out to be 59.8 ± 4.9%.

Consider `Nc1nnc(-c2ccccc2Cc2ccccc2)s1` [1m, 5-(2-benzylphenyl)-1,3,4-thiadiazol-2-amine], for which the inhibition at 10 µM worked out at 36.5 ± 5.4%.

As to `Nc1nnc(-c2cccc(-c3cccc(C(F)(F)F)c3)c2)s1` [2d], the inhibition at 10 µM amounted to 46.1 ± 5.4%.

In the next data set the test system is T. b. brucei Lister 427 bloodstream forms. In words: In vitro activity against T. brucei (HTS SYBR Green I growth inhibition assay). The data set is classed as cell-based, Trypanosoma brucei brucei. Particulars: Trypanosoma brucei, 50 μM; standard deviation within ±10% of the value; read-out: % Inhibition T. brucei at 50 μM.
On to `Nc1nnc(-c2cccc(-c3ccc4c(c3)OCO4)c2)s1` [2g], for which the inhibition at 50 µM amounted to 10.4%.

In the case of `Nc1nnc(-c2cccc(-c3ccc(C(F)(F)F)cc3)c2)s1` [2e], the inhibition at 50 µM came out at 92.1%.

Consider `Nc1nnc(-c2cccc(-c3cccc(C(F)(F)F)c3)c2)s1` [2d], for which the inhibition at 50 µM is 94.8%.

Staying with this data set, now noted: Trypanosoma brucei, standard deviation within ±10% of the value; read-out: EC50 T. brucei.
As a reminder, the EC50 is the midpoint of the concentration-response curve. `Nc1nnc(-c2cccc(-c3ccc(C(F)(F)F)cc3)c2)s1` [2e]: the EC50 amounted to 42 µM.

In the case of `Nc1nnc(-c2cccc(-c3cccc(C(F)(F)F)c3)c2)s1` [2d], the EC50 came out at 37 µM.
